ChEMBL document CHEMBL4507277

Assays:
[1] = target: Ephrin type-B receptor 2 (Homo sapiens) (UniProt P29323); settings: Compound concentration 1000.0 nM
[2] = target: Serine/threonine-protein kinase Nek1 (Homo sapiens) (UniProt Q96PY6); settings: Compound concentration 1000.0 nM
[3] = test system: Receptor-type tyrosine-protein kinase FLT3 (Homo sapiens), P36888 [UNDEFINED MUTATION]; settings: Compound concentration 1000.0 nM
[4] = target: Calcium/calmodulin-dependent protein kinase kinase 1 (Homo sapiens) (UniProt Q8N5S9); settings: Compound concentration 1000.0 nM
[5] = target: Macrophage colony-stimulating factor 1 receptor (Homo sapiens) (UniProt P07333); settings: Compound concentration 1000.0 nM
Sequence of Macrophage colony-stimulating factor 1 receptor (Homo sapiens) (P07333 whole entry): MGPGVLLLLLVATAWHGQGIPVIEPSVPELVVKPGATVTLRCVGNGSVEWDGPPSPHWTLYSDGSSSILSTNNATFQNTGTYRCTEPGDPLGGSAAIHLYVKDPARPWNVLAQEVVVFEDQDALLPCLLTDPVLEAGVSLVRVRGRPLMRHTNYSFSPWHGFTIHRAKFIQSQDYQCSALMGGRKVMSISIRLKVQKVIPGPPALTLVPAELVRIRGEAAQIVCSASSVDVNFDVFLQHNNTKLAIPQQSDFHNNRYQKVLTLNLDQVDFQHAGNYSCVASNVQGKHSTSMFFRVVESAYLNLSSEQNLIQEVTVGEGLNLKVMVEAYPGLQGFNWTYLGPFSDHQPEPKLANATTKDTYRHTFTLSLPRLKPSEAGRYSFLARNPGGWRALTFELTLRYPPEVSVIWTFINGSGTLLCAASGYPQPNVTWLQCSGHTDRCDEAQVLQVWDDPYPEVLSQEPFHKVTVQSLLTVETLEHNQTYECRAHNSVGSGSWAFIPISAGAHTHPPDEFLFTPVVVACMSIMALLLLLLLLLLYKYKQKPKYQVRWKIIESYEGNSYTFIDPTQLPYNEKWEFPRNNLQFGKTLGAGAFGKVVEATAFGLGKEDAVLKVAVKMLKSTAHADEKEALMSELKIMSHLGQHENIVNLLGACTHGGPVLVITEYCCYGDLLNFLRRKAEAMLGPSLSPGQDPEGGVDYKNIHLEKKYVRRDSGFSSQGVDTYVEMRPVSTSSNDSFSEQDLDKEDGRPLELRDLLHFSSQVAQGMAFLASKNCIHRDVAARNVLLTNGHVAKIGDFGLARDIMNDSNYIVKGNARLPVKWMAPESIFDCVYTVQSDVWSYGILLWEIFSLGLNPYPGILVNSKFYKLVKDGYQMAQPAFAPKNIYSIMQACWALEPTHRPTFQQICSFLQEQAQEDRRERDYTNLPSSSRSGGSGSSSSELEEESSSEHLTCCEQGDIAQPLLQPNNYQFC

[6] = target: Tyrosine-protein kinase ZAP-70 (Homo sapiens) (UniProt P43403); settings: Compound concentration 1000.0 nM
[7] = target: Leukocyte tyrosine kinase receptor (Homo sapiens) (UniProt P29376); settings: Compound concentration 1000.0 nM
Sequence of Leukocyte tyrosine kinase receptor (Homo sapiens) (P29376 whole entry): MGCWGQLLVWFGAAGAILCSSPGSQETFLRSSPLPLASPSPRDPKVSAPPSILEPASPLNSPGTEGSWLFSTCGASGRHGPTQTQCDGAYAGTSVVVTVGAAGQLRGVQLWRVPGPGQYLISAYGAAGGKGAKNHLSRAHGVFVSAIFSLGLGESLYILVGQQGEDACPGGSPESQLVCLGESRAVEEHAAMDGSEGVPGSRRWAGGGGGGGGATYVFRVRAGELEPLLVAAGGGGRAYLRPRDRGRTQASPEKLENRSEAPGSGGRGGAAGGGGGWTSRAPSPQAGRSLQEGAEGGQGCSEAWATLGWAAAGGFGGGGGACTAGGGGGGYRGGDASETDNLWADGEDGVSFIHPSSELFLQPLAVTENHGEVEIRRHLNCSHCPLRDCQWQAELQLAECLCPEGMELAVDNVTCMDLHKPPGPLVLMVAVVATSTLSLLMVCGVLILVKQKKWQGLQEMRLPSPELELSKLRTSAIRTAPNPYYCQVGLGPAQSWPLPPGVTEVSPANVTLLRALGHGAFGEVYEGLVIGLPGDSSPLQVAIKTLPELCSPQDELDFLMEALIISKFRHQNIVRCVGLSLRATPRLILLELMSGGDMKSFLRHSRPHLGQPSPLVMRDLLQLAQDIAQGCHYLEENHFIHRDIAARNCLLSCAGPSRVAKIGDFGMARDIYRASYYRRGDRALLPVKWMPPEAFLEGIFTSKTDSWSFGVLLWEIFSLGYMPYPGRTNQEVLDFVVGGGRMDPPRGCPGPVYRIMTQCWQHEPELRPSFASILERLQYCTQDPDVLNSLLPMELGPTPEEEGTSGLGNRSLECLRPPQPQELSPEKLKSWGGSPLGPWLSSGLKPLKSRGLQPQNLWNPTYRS

[8] = target: Protein kinase C theta type (Homo sapiens) (UniProt Q04759); settings: Compound concentration 1000.0 nM
[9] = target: Serine/threonine-protein kinase 32A (Homo sapiens) (UniProt Q8WU08); settings: Compound concentration 1000.0 nM
[10] = target: Serine/threonine-protein kinase 35 (Homo sapiens) (UniProt Q8TDR2); settings: Compound concentration 1000.0 nM
[11] = target: BDNF/NT-3 growth factors receptor (Homo sapiens) (UniProt Q16620); settings: Compound concentration 1000.0 nM
[12] = target: Myosin-IIIa (Homo sapiens) (UniProt Q8NEV4); settings: Compound concentration 1000.0 nM
[13] = test system: Tyrosine-protein kinase ABL1 (Homo sapiens), P00519 [M351T]; settings: Compound concentration 1000.0 nM
[14] = target: Cyclin-dependent kinase 3 (Homo sapiens) (UniProt Q00526); settings: Compound concentration 1000.0 nM
[15] = target: Vascular endothelial growth factor receptor 3 (Homo sapiens) (UniProt P35916); settings: Compound concentration 1000.0 nM
[16] = target: Serine/threonine-protein kinase PLK1 (Homo sapiens) (UniProt P53350); settings: Compound concentration 1000.0 nM
[17] = target: Muscarinic acetylcholine receptor M4 (Homo sapiens) (UniProt P08173); settings: Compound concentration 10.0 uM
[18] = target: 1-phosphatidylinositol 3-phosphate 5-kinase (Homo sapiens) (UniProt Q9Y2I7); settings: Compound concentration 1000.0 nM
[19] = target: Serine/threonine-protein kinase D1 (Homo sapiens) (UniProt Q15139); settings: Compound concentration 1000.0 nM
[20] = target: Ephrin type-A receptor 8 (Homo sapiens) (UniProt P29322); settings: Compound concentration 1000.0 nM
[21] = target: Hormonally up-regulated neu tumor-associated kinase (Homo sapiens) (UniProt P57058); settings: Compound concentration 1000.0 nM
[22] = target: Serine/threonine-protein kinase Sgk3 (Homo sapiens) (UniProt Q96BR1); settings: Compound concentration 1000.0 nM
[23] = target: 5-hydroxytryptamine receptor 1E (Homo sapiens) (UniProt P28566); settings: Compound concentration 10.0 uM
[24] = test system: Tyrosine-protein kinase ABL1 (Homo sapiens), P00519 [F317L]; settings: Compound concentration 1000.0 nM
[25] = target: Alpha-2B adrenergic receptor (Homo sapiens) (UniProt P18089); settings: Compound concentration 10.0 uM
[26] = target: SRSF protein kinase 3 (Homo sapiens) (UniProt Q9UPE1); settings: Compound concentration 1000.0 nM
Sequence of SRSF protein kinase 3 (Homo sapiens) (Q9UPE1 whole entry, the tested form may be a part): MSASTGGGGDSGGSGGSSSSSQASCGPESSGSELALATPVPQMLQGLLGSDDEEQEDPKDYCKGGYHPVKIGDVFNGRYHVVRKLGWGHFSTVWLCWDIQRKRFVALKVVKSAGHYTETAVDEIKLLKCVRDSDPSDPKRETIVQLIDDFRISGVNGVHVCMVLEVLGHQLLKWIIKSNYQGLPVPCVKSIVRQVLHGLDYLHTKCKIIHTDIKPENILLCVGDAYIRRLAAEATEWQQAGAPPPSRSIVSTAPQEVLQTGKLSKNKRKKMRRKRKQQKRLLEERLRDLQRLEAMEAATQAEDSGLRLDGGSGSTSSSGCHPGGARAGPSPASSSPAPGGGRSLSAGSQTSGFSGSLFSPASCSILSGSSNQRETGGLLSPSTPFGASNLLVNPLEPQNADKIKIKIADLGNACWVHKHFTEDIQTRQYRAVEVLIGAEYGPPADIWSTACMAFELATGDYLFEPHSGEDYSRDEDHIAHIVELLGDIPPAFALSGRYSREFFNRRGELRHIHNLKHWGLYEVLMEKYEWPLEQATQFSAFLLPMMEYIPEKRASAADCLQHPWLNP

[27] = target: Phosphatidylinositol 4-phosphate 3-kinase C2 domain-containing subunit beta (Homo sapiens) (UniProt O00750); settings: Compound concentration 1000.0 nM
[28] = target: Serine/threonine-protein kinase PAK 1 (Homo sapiens) (UniProt Q13153); settings: Compound concentration 1000.0 nM
[29] = target: RAC-gamma serine/threonine-protein kinase (Homo sapiens) (UniProt Q9Y243); settings: Compound concentration 1000.0 nM
[30] = target: Receptor-type tyrosine-protein kinase FLT3 (Homo sapiens) (UniProt P36888); settings: Compound concentration 1000.0 nM
[31] = target: Cyclin-dependent kinase 18 (Homo sapiens) (UniProt Q07002); settings: Compound concentration 1000.0 nM
Sequence of Cyclin-dependent kinase 18 (Homo sapiens) (Q07002 whole entry): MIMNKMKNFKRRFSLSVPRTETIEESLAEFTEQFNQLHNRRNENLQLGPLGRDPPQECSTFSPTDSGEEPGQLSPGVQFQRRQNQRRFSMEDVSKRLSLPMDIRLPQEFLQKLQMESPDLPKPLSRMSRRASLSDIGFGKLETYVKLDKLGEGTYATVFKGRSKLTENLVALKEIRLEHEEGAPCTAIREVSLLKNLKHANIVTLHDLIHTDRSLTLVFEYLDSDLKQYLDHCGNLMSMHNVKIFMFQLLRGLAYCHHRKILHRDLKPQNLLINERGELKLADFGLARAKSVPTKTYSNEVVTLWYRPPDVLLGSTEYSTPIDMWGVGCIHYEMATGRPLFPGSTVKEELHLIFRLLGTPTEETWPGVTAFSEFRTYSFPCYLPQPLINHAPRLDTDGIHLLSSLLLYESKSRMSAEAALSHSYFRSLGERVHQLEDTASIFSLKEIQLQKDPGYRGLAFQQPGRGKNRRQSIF

[32] = target: Alpha-1B adrenergic receptor (Homo sapiens) (UniProt P35368); settings: Compound concentration 10.0 uM
Sequence of Alpha-1B adrenergic receptor (Homo sapiens) (P35368 whole entry): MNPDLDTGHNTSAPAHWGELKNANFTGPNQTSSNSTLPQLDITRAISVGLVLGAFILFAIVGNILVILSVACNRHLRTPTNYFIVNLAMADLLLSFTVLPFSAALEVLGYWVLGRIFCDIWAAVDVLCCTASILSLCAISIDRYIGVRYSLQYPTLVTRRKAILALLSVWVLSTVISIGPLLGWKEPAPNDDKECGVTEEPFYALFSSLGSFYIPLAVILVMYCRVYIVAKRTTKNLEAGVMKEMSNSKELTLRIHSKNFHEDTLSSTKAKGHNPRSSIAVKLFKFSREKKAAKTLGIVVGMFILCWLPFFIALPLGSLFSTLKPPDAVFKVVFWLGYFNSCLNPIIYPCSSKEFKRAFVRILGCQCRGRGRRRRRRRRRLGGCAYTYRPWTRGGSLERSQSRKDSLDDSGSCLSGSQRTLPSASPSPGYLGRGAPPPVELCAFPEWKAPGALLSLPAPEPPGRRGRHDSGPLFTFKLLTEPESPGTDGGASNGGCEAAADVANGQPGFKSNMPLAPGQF

[33] = target: Tyrosine-protein kinase ABL2 (Homo sapiens) (UniProt P42684); settings: Compound concentration 1000.0 nM
[34] = target: MAP/microtubule affinity-regulating kinase 4 (Homo sapiens) (UniProt Q96L34); settings: Compound concentration 1000.0 nM
[35] = target: Kappa-type opioid receptor (Homo sapiens) (UniProt P41145); settings: Compound concentration 10.0 uM
[36] = target: Mitogen-activated protein kinase kinase kinase kinase 3 (Homo sapiens) (UniProt Q8IVH8); settings: Compound concentration 1000.0 nM
[37] = target: Receptor tyrosine-protein kinase erbB-4 (Homo sapiens) (UniProt Q15303); settings: Compound concentration 1000.0 nM
[38] = target: Ribosomal protein S6 kinase alpha-6 (Homo sapiens) (UniProt Q9UK32); settings: Compound concentration 1000.0 nM
[39] = target: 3-phosphoinositide-dependent protein kinase 1 (Homo sapiens) (UniProt O15530); settings: Compound concentration 1000.0 nM
[40] = target: Tyrosine-protein kinase Fer (Homo sapiens) (UniProt P16591); settings: Compound concentration 1000.0 nM
Sequence of Tyrosine-protein kinase Fer (Homo sapiens) (P16591 whole entry, looked up): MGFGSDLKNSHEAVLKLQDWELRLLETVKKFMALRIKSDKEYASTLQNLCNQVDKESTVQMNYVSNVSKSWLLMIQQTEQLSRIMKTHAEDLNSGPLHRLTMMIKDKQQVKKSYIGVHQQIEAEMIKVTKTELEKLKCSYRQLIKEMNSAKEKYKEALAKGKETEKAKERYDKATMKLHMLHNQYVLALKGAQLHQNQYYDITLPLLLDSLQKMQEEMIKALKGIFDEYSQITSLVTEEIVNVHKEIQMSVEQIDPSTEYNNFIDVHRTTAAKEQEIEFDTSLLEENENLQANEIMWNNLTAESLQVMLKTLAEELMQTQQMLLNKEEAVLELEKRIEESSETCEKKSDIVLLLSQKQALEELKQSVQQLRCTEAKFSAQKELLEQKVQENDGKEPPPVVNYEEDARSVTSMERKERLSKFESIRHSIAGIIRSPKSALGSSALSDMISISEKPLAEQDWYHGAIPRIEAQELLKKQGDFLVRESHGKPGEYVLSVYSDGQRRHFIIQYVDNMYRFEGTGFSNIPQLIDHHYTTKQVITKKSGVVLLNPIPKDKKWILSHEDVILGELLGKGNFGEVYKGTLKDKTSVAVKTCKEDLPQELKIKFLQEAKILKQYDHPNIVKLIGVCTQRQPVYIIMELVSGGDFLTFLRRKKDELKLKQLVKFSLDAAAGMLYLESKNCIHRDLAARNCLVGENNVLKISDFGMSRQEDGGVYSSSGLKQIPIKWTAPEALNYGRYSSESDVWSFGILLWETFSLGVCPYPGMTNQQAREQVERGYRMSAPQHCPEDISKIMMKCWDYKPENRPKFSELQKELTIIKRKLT

[41] = target: Histamine H3 receptor (Homo sapiens) (UniProt Q9Y5N1); settings: Compound concentration 10.0 uM
[42] = target: Ribosomal protein S6 kinase alpha-1 (Homo sapiens) (UniProt Q15418); settings: Compound concentration 1000.0 nM
Sequence of Ribosomal protein S6 kinase alpha-1 (Homo sapiens) (Q15418 whole entry): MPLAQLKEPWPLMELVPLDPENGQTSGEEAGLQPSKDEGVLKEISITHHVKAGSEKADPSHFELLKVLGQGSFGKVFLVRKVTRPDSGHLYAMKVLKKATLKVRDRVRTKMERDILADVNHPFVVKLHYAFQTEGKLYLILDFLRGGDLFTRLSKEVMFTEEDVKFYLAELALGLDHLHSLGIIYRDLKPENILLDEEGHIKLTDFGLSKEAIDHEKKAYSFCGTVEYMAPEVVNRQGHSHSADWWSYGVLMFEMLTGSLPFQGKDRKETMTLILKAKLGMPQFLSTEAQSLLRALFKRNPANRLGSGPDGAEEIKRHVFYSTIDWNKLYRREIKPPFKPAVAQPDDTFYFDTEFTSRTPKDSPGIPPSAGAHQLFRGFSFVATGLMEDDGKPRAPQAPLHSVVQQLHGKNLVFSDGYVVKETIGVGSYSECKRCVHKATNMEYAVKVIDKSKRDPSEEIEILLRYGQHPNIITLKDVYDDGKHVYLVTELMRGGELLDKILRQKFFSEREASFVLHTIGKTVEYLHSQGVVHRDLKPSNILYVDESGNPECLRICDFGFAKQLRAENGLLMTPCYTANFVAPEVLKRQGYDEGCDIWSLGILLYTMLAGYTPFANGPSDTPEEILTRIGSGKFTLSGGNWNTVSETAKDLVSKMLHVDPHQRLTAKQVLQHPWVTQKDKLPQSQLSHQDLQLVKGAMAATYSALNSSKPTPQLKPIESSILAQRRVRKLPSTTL

[43] = target: Serine/threonine-protein kinase 17B (Homo sapiens) (UniProt O94768); settings: Compound concentration 1000.0 nM
[44] = target: Inhibitor of nuclear factor kappa-B kinase subunit alpha (Homo sapiens) (UniProt O15111); settings: Compound concentration 1000.0 nM
[45] = target: Casein kinase I isoform alpha (Homo sapiens) (UniProt P48729); settings: Compound concentration 1000.0 nM

CCS(=O)(=O)c1cc2cc(C[C@](O)(CC(C)(C)c3ccc(F)cc3C(N)=O)C(F)(F)F)[nH]c2cn1
inactive: residual activity [1] 100% | residual activity [3] 91% | residual activity [4] 100% | residual activity [5] 100% | residual activity [6] 71% | residual activity [7] 97% | residual activity [8] 87% | residual activity [9] 84% | residual activity [10] 100% | residual activity [11] 100% | residual activity [12] 94% | residual activity [13] 94% | residual activity [14] 100% | residual activity [15] 95% | residual activity [16] 100% | inhibition [17] 13.1% | residual activity [18] 97% | residual activity [19] 100% | residual activity [20] 82% | residual activity [21] 100% | residual activity [22] 89% | inhibition [23] 4.75% | residual activity [24] 100% | inhibition [25] 24.7% | residual activity [26] 100% | residual activity [27] 89% | residual activity [28] 95% | residual activity [29] 100% | residual activity [30] 87% | residual activity [31] 100% | inhibition [32] 3.39% | residual activity [33] 80% | residual activity [34] 100% | inhibition [35] 23.4% | residual activity [36] 83% | residual activity [37] 100% | residual activity [38] 100% | residual activity [39] 100% | residual activity [40] 96% | inhibition [41] 11.7% | residual activity [42] 100% | residual activity [43] 74% | residual activity [44] 100% | residual activity [45] 100%
active: residual activity [2] 45%

CCS(=O)(=O)c1cc2cc(C[C@@](O)(CC(C)(C)c3ccc(F)cc3C(N)=O)C(F)(F)F)[nH]c2cn1
active: residual activity [38] 0%
inactive: residual activity [1] 95% | residual activity [2] 53% | residual activity [3] 78% | residual activity [4] 87% | residual activity [5] 100% | residual activity [6] 72% | residual activity [7] 100% | residual activity [8] 97% | residual activity [9] 77% | residual activity [10] 100% | residual activity [11] 84% | residual activity [12] 80% | residual activity [13] 96% | residual activity [14] 73% | residual activity [15] 90% | residual activity [16] 85% | inhibition [17] 18.2% | residual activity [18] 69% | residual activity [19] 100% | residual activity [20] 100% | residual activity [21] 100% | residual activity [22] 79% | inhibition [23] 11.2% | residual activity [24] 90% | inhibition [25] 6.5% | residual activity [26] 100% | residual activity [27] 86% | residual activity [28] 100% | residual activity [29] 90% | residual activity [30] 97% | residual activity [31] 100% | inhibition [32] 1.64% | residual activity [33] 88% | residual activity [34] 100% | inhibition [35] 28.3% | residual activity [36] 82% | residual activity [37] 100% | residual activity [39] 100% | residual activity [40] 74% | inhibition [41] 11.7% | residual activity [42] 100% | residual activity [43] 76% | residual activity [44] 95% | residual activity [45] 86%
